# Experimental data from patent publication US20190062736A1, “IN SITU AND IN VIVO ANALYSIS OF CHROMATIN INTERACTIONS BY BIOTINYLATED DCAS9 PROTEIN” (BOARD OF REGENTS, THE UNIVERSITY OF TEXAS SYSTEM, priority 2017, published 2019).
# Entries after “also recorded” stand apart in the source; their conditions may differ.
# Key:
# human erythroid cells = experiment: Erythroid maturation by CD71/CD235a flow cytometry and cytospin after JQ1; assay type: cell-based; details: JQ1 vs DMSO, cell surface markers CD71 and CD235a, cytospin
# Protocol: (§1) Cells and Cell Culture. Human […] K562 cells were obtained from ATCC and cultured in IMDM medium containing 10% FBS and 1% penicillin/streptomycin. pEF1α-FB-dCas9 and pEF1α-BirA-V5 vectors were co-transfected into K562 cells by nucleofection using the ECM 830 Square Wave Electroporation System (Harvard Apparatus, Holliston, Mass.). Cells were plated in 96-well plates and treated with 1 μg/ml of puromycin (Sigma) and 600 μg/ml of G418 (Sigma) 48-72 hour post-transfection. Single-cell-derived clones were isolated and examined by Western blot analysis to screen for FB-dCas9 and BirA-expressing stable clones. Human primary adult erythroid progenitor cells were generated ex vivo from CD34+ HSPCs as previously described (Huang et al., 2016). Primary HSPCs from both sexes were used in this study. […] Mouse male embryonic stem cells (ESCs) were cultured on primary embryonic fibroblasts and differentiated to embryoid bodies (EBs) by LIF withdrawal for 8 days. All cultures were incubated at 37° C. in 5% CO2. […]
# Flow Cytometry. Human erythroid cell differentiation was analyzed by flow cytometry using FACSCanto. […] The cells were analyzed for expression of cell surface receptors with antibodies specific for CD71 and CD235a conjugated to phycoerythrin (PE) and fluorescein isothiocyanate (FITC), respectively. Data were analyzed using FlowJo software (Ashland, Oreg.). […]
# [1] = system: human primary erythroid cells; experiment: qRT-PCR of β-globin mRNAs after JQ1 treatment; assay type: cell-based; details: JQ1 vs DMSO
# Protocol: as §1, with “CO2. All cell lines were tested for mycoplasma contamination.” for “CO2.”
# RNA-seq and qRT-PCR Analysis. […] Sequencing reads from all RNA-seq experiments were aligned to human (hg19) reference genome by TopHat v2.0.13 (Trapnell et al., 2009) with the parameters: --solexaquals --no-novel-juncs. Quantitative RT-PCR (qRT-PCR) was performed using the iQ SYBR Green Supermix (Bio-Rad).
smiles,measurement,setting,value
Cc1sc2c(c1C)C(c1ccc(Cl)cc1)=N[C@@H](CC(=O)OC(C)(C)C)c1nnc(C)n1-2 [JQ1],erythroid differentiation,human erythroid cells,without apparent effects
same,β-globin mRNAs,[1],significant downregulation; also recorded: significantly decreased
